Read-outs that look alike come from different tables or passages of the source. Where a SMILES comes first, the peptide text is derived from it. Side-chain parts run from the residue outwards. [ ]: non-standard residue; d: D form. The star is where a group is joined. DOTA = O=C(O)CN1CCN(CC(=O)O)CCN(CC(=O)*)CCN(CC(=O)O)CC1; dTyr(3-I) = N[C@H](Cc1ccc(O)c(I)c1)C(=O)O; 2Nal = N[C@@H](Cc1ccc2ccccc2c1)C(=O)O; dNMeOrn = CN[C@H](CCCN)C(=O)O; 4Abz = Nc1ccc(C(=O)O)cc1
Key:
[1] = Lipophilicity, modified shake-flask method; type: physicochemical; details: O/PBS, radiolabeled compound, means ± SD (n=6)
Procedure: The lipophilicity (log PO/PBS) of the ^68Ga- and ^177Lu-labeled compounds in this study was determined via a modified shake-flask method.

[2] = tested on: Daudi (human B-cell lymphoma) xenograft bearing CB-17 SCID mice; assay: Biodistribution in Daudi xenograft bearing mice; type: in vivo, mouse; details: 1h p.i., tracer only, i.v.; γ-counter; means ± SD, n=4-5 (68Ga: n=4)
Procedure: (§1) The biodistribution of selected compounds was investigated in Daudi (human B-cell lymphoma) xenograft bearing female CB-17 SCID mice (6-8 weeks, Charles River, Sulzfeld, Germany), [29]. All animal experiments were performed in accordance with current animal welfare regulations in Germany (approval #55.2-1-54-2532-71-13).
(§2) Animals (n=4-5 per group) were injected intravenously with 5-10 MBq (0.08-0.11 nmol peptide per mouse) of the respective ^68Ga- and^ 177Lu-labeled CXCR4 ligands in PBS (100 µL) into the tail vein under isoflurane anesthesia. CXCR4-specificity of binding was determined by coinjection of 50 µg AMD3100 per mouse. The animals were sacrificed 1, 6 and 48h post injection (p.i.), and the organs of interest were dissected. The radioactivity was measured in weighted tissue samples using a γ-counter. Data are expressed in % ID/g tissue (mean ± SD).

human CXCR4 (hCXCR4) = target: T1, human CXCR4 (hCXCR4) (Homo sapiens, UniProt P61073); assay: Competition binding to hCXCR4, Jurkat cells, [125I]FC-131 as radioligand; details: Jurkat cells 400.000 cells/sample, means ± SD of min. three separate experiments
T1 construct: hCXCR4-expressing Jurkat human T-cell leukemia cells; endogenous in cells; host or cells: Jurkat human T-cell leukemia cells (whole cells)
T1 sequence (P61073 whole entry): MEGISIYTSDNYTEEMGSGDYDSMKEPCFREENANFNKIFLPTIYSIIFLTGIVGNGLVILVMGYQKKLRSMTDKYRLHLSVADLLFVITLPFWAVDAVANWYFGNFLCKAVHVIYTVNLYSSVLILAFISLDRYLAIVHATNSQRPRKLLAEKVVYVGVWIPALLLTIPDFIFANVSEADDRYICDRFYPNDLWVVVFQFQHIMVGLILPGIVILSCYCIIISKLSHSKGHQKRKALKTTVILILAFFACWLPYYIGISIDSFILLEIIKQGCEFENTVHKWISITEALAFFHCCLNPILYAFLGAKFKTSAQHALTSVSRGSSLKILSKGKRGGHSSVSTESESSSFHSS
Procedure: Experiments were performed in triplicate with n=3 per concentration in each experiment. IC50 values were calculated using GraphPad Prism 6.01 (Graph Pad Software, San Diego, USA).
Figure 2 Binding affinities (IC50 in nM) of the respective ^natGa-, ^natLu-, ^natY- and ^natBi-complexes of PentixaFor (entry 1), PentixaTher (entry 2) and a series of CPCR4-(blue) and iodoCPCR4-(black) derived analogs with modified linker structure (entries 3-14) to human CXCR4 (hCXCR4). […] Each experiment was performed in triplicate, and results are means ± SD from a minimum of three separate experiments. TEXT PRINTED IN THE PICTURE: 1: ^natGa-complex IC50 [nM]: 24.8 ± 2.5; ^natLu-complex IC50 [nM]: 41 ± 12; ^natY-complex IC50 [nM]: 40 ± 27 | 2: ^natGa-complex IC50 [nM]: 6.1 ± 1.5; ^natLu-complex IC50 [nM]: 14.6 ± 1.0; ^natY-complex IC50 [nM]: 20.4 ± 0.3; ^natBi-complex IC50 [nM]: 24.4 ± 3.7 | 3: ^natGa-complex IC50 [nM]: 282 ± 90; ^natLu-complex IC50 [nM]: 12.5 ± 3.2; ^natY-complex IC50 [nM]: 216 ± 33; ^natBi-complex IC50 [nM]: 27 ± 14 | 4: ^natGa-complex IC50 [nM]: 14.4 ± 0.3; ^natLu-complex IC50 [nM]: 28 ± 9; ^natY-complex IC50 [nM]: 83 ± 30 | 5: ^natLu-complex IC50 [nM]: 106 ± 10 | 6: ^natGa-complex IC50 [nM]: 7.9 ± 1.1; ^natLu-complex IC50 [nM]: 5.9 ± 0.3; ^natY-complex IC50 [nM]: 6.7 ± 1.2; ^natBi-complex IC50 [nM]: 14.5 ± 0.2 | 7: ^natGa-complex IC50 [nM]: 47 ± 8; ^natLu-complex IC50 [nM]: 39 ± 1; ^natY-complex IC50 [nM]: 43 ± 2 | 8: ^natGa-complex IC50 [nM]: 3.6 ± 0.7; ^natLu-complex IC50 [nM]: 3.5 ± 0.3; ^natY-complex IC50 [nM]: 4.1 ± 1.3; ^natBi-complex IC50 [nM]: 3.5 ± 0.4 | 9: ^natGa-complex IC50 [nM]: 8.9 ± 3.8; ^natLu-complex IC50 [nM]: 8.0 ± 3.1; ^natY-complex IC50 [nM]: 6.3 ± 2.5 | 10: ^natGa-complex IC50 [nM]: 2.4 ± 0.1; ^natLu-complex IC50 [nM]: 3.6 ± 1.1; ^natY-complex IC50 [nM]: 2.4 ± 0.2; ^natBi-complex IC50 [nM]: 38 ± 25 | 11: ^natGa-complex IC50 [nM]: 9.7 ± 2.8; ^natLu-complex IC50 [nM]: 5.4 ± 1.6; ^natY-complex IC50 [nM]: 8.7 ± 2.9 | 12: ^natGa-complex IC50 [nM]: 1.4 ± 0.2; ^natLu-complex IC50 [nM]: 2.1 ± 0.3; ^natY-complex IC50 [nM]: 2.1 ± 0.3; ^natBi-complex IC50 [nM]: 2.9 ± 0.1 | 13: ^natGa-complex IC50 [nM]: 0.4 ± 0.1; ^natLu-complex IC50 [nM]: 1.5 ± 0.1; ^natY-complex IC50 [nM]: 1.5 ± 0.1 | 14: ^natGa-complex IC50 [nM]: 2.6 ± 1.0; ^natLu-complex IC50 [nM]: 1.7 ± 0.6; ^natY-complex IC50 [nM]: 1.6 ± 0.5; ^natBi-complex IC50 [nM]: 1.8 ± 0.8

[3] = Small animal PET imaging in Daudi xenograft bearing mice; type: in vivo; details: CB17 SCID, mouse, iv, total radioactivity, 90 min p.i., dynamic PET, ROI analysis, n=1 per compound
Procedure: Small aminal PET imaging studies were performed using a Siemens Inveon PET scanner. Animals were anesthetized with isoflurane and injected via the tail vein with 10 to 15 MBq (0.1 nmol) of the respective tracer. Dynamic imaging (n=1 per compound) was performed after on-bed injection for 1.5 h, and static images (n=1 per compound) were acquired at 1 h p.i. with an acquisition time of 15 min. Data analysis was performed using the Inveon Research Workplace software. Images were reconstructed using a 3D ordered-subsets expectation maximum (OSEM3D) algorithm without scanner and attenuation correction. Time-activity curves (Figure 4) were obtained by generating isocontour regions of interest (ROI) for the tumor and the heart content (as a surrogate for blood activity), as well as by defining two spherical ROIs (each 23.4 mm^3) in the thigh area (muscle) and areas of homogenous tracer uptake in the liver, followed by plotting of average activity ± SD per volume in these ROIs over time.  Figure 4 Results from small animal PET imaging using [^68Ga]PentixaFor (top row), [^68Ga]DOTA-r-a-ABA-CPCR4 (middle row) and [^68Ga]DOTA-r-a-ABA-iodoCPCR4 (bottom row) in Daudi xenograft bearing CB17 SCID mice. Images on the left (MIP) were obtained by static imaging (1h p.i., n=1), the time activity curves (TAC) on the right were acquired by dynamic PET imaging (0-90 min p.i., n=1).

[4] = Biodistribution in Daudi xenograft bearing mice; type: in vivo, mouse; details: female, CB-17 SCID, mouse, iv, total radioactivity, 1h p.i., tracer only, i.v., γ-counter, means ± SD, n=4-5 (68Ga: n=4)
Procedure: as §1, §2

[5] = natGa-complex, read-out: ^natGa-complex IC50 to hCXCR4
[6] = natLu-complex, read-out: ^natLu-complex IC50 to hCXCR4
[7] = natY-complex, read-out: ^natY-complex IC50 to hCXCR4
[8] = natBi-complex, read-out: ^natBi-complex IC50 to hCXCR4

Compound	IC50 (human CXCR4 (hCXCR4); [5]) [nM]	IC50 (human CXCR4 (hCXCR4); [6]) [nM]	IC50 (human CXCR4 (hCXCR4); [7]) [nM]	other results
CN1C(=O)[C@@H](Cc2ccc(O)c(I)c2)NC(=O)CNC(=O)[C@H](Cc2ccc3ccccc3c2)NC(=O)[C@H](CCCNC(=N)N)NC(=O)[C@H]1CCCNC(=O)c1ccc(NC(=O)CNC(=O)[C@@H](CCCNC(=N)N)NC(=O)CN2CCN(CC(=O)O)CCN(CC(=O)O)CCN(CC(=O)O)CC2)cc1 [[^68Ga]DOTA-r-G-ABA-iodoCPCR4] [metal not drawn] (cyclo([2Nal]G[dTyr(3-I)][dNMeOrn]([4Abz-Gly-dR-DOTA])R))				log PO/PBS [1]: -3.0 ± 0.02
CN1C(=O)[C@@H](Cc2ccc(O)c(I)c2)NC(=O)CNC(=O)[C@H](Cc2ccc3ccccc3c2)NC(=O)[C@H](CCCNC(=N)N)NC(=O)[C@H]1CCCNC(=O)c1ccc(NC(=O)CNC(=O)[C@@H](CCCNC(=N)N)NC(=O)CN2CCN(CC(=O)O)CCN(CC(=O)O)CCN(CC(=O)O)CC2)cc1 [[^177Lu]DOTA-r-G-ABA-iodoCPCR4] [metal not drawn] (cyclo([2Nal]G[dTyr(3-I)][dNMeOrn]([4Abz-Gly-dR-DOTA])R))				log PO/PBS [1]: -2.7 ± 0.05
C[C@@H](NC(=O)[C@@H](CCCNC(=N)N)NC(=O)CN1CCN(CC(=O)O)CCN(CC(=O)O)CCN(CC(=O)O)CC1)C(=O)Nc1ccc(C(=O)NCCC[C@@H]2C(=O)N[C@@H](CCCNC(=N)N)C(=O)N[C@@H](Cc3ccc4ccccc4c3)C(=O)NCC(=O)N[C@H](Cc3ccc(O)cc3)C(=O)N2C)cc1 [[^68Ga]DOTA-r-a-ABA-CPCR4] [metal not drawn] (cyclo([2Nal]G[dY][dNMeOrn]([4Abz-dA-dR-DOTA])R))				log PO/PBS [1]: -3.6 ± 0.06; Biodistribution blood [2]: 3.95 ± 0.89 %iD/g; Biodistribution liver [2]: 5.63 ± 0.51 %iD/g
DOTA-r-G-ABA-CPCR4 [entry 11]	9.7 ± 2.8	5.4 ± 1.6	8.7 ± 2.9	
DOTA-G-ABA-iodoCPCR4 (head to tail) [entry 6]	7.9 ± 1.1	5.9 ± 0.3	6.7 ± 1.2	IC50 (human CXCR4 (hCXCR4); [8]): 14.5 ± 0.2 nM
DOTA-k-G-ABA-CPCR4 [entry 9]	8.9 ± 3.8	8 ± 3.1	6.3 ± 2.5	
DOTAGA-ABA-iodoCPCR4 (head to tail) [entry 4]	14.4 ± 0.3	28 ± 9	83 ± 30	
DOTA-k-G-ABA-iodoCPCR4 (head to tail) [entry 10]	2.4 ± 0.1	3.6 ± 1.1	2.4 ± 0.2	IC50 (human CXCR4 (hCXCR4); [8]): 38 ± 25 nM
C[C@@H](NC(=O)[C@@H](CCCNC(=N)N)NC(=O)CN1CCN(CC(=O)O)CCN(CC(=O)O)CCN(CC(=O)O)CC1)C(=O)Nc1ccc(C(=O)NCCC[C@@H]2C(=O)N[C@@H](CCCNC(=N)N)C(=O)N[C@@H](Cc3ccc4ccccc4c3)C(=O)NCC(=O)N[C@H](Cc3ccc(O)c(I)c3)C(=O)N2C)cc1 [[^68Ga]DOTA-r-a-ABA-iodoCPCR4, metal not drawn] (cyclo([2Nal]G[dTyr(3-I)][dNMeOrn]([4Abz-dA-dR-DOTA])R))				tissue uptake per volume at 1.5 h ([3]; kidney, read-out: Kidney uptake in PET): 4.3 ± 0.4 %ID/mL; tissue uptake per volume at 1.5 h ([3]; liver, average ± SD per volume in ROI, read-out: Liver uptake in PET): 6.1 ± 0.1 %ID/mL; tissue uptake per volume at 1.5 h ([3]; tumor (Daudi xenograft), Daudi xenograft, read-out: Tumor accumulation in PET): 14.2 ± 1.5 %ID/mL; tissue uptake at 1 h ([4]; blood, read-out: Biodistribution blood): 3.71 ± 0.28 %ID/g; tissue uptake at 1 h ([4]; colon, read-out: Biodistribution colon): 0.65 ± 0.29 %ID/g; tissue uptake at 1 h ([4]; femur, read-out: Biodistribution femur): 1.41 ± 0.16 %ID/g; tissue uptake at 1 h ([4]; heart, read-out: Biodistribution heart): 1.56 ± 0.2 %ID/g; tissue uptake at 1 h ([4]; kidney, read-out: Biodistribution kidney): 6.25 ± 0.52 %ID/g; tissue uptake at 1 h ([4]; muscle, read-out: Biodistribution muscle): 0.49 ± 0.08 %ID/g; tissue uptake at 1 h ([4]; pancreas, read-out: Biodistribution pancreas): 0.88 ± 0.06 %ID/g; tissue uptake at 1 h ([4]; small intestine, read-out: Biodistribution small intestine): 1.18 ± 0.03 %ID/g
PentixaFor [entry 1, reference compound]	24.8 ± 2.5	41 ± 12	40 ± 27	
DOTA-AMBS-iodoCPCR4 (head to tail) [entry 2, PentixaTher]	6.1 ± 1.5	14.6 ± 1	20.4 ± 0.3	IC50 (human CXCR4 (hCXCR4); [8]): 24.4 ± 3.7 nM

From paper PMC7381729, “A new class of PentixaFor- and PentixaTher-based theranostic agents with enhanced CXCR4-targeting efficiency” (Theranostics, 2020)
